Results published in US9102670B2, “Pyrido-, pyrazo- and pyrimido-pyrimidine derivatives as mTOR inhibitors” (KuDOS Pharmaceuticals Limited, priority 2006, dated 2015).

test system: phosphorylation of Serine 473 in Akt; assay: In Vitro Phospho-Ser473 Akt Assay in MDA-MB-468 cells; assay type: cell-based; settings: Homo sapiens, MDA-MB-468, read-out: IC50 values against mTOR, phospho-Ser473 Akt assay, MDA-MB-468 cells

Row | Structure (SMILES) | IC50
1 | COc1ccc(-c2ccc3c(N4CCOC[C@@H]4C)nc(N4CCCC(OC)C4)nc3n2)cc1CO (some centres unmarked) [Example 18aj] | < 300 nM
2 | COc1ccc(-c2ccc3c(N4CCOC[C@@H]4C)nc(N4CCC(C(=O)c5ccc(Cl)cc5)CC4)nc3n2)cc1CO [Example 18ak] | < 100 nM
3 | COc1ccc(-c2ccc3c(N4CCOC[C@@H]4C)nc(N4CCC(O)(c5ccccc5)CC4)nc3n2)cc1CO [Example 18am] | < 100 nM
4 | COc1ccc(-c2ccc3c(N4CCOC[C@@H]4C)nc(N4CCC(C#N)(c5ccccc5)CC4)nc3n2)cc1CO [Example 18an] | < 100 nM
5 | COc1ccc(-c2ccc3c(N4CCOC[C@@H]4C)nc(N4CCCC4C)nc3n2)cc1CO (some centres unmarked) [Example 18ap] | < 100 nM
6 | COc1ccc(-c2ccc3c(N4CCOC[C@@H]4C)nc(N4CCC(c5ccc(Cl)cc5)CC4)nc3n2)cc1CO [Example 18aq] | < 300 nM
7 | COc1ccc(-c2ccc3c(N4CCOC[C@@H]4C)nc(N4CCCC(c5nc(C)no5)C4)nc3n2)cc1CO (some centres unmarked) [Example 18ar] | < 100 nM
8 | COc1ccc(-c2ccc3c(N4CCOC[C@@H]4C)nc(N4CCCC(CN(C)C)C4)nc3n2)cc1CO (some centres unmarked) [Example 18as] | < 300 nM
9 | COc1ccc(-c2ccc3c(N4CCOC[C@@H]4C)nc(N4CCCC(N)C4)nc3n2)cc1CO (some centres unmarked) [Example 18au] | < 100 nM
10 | COc1ccc(-c2ccc3c(N4CCOC[C@@H]4C)nc(NC(C)CC(C)C)nc3n2)cc1CO (some centres unmarked) [Example 18av] | < 300 nM
11 | COc1ccc(-c2ccc3c(N4CCOC[C@@H]4C)nc(NC4CCCC4)nc3n2)cc1CO [Example 18aw] | < 100 nM
12 | COCC(C)Nc1nc(N2CCOC[C@@H]2C)c2ccc(-c3ccc(OC)c(CO)c3)nc2n1 (some centres unmarked) [Example 18ax] | < 100 nM
13 | COc1ccc(-c2ccc3c(N4CCOC[C@@H]4C)nc(-n4ccnc4)nc3n2)cc1CO [Example 18ay] | < 300 nM
14 | COc1ccc(-c2ccc3c(N4CCOC[C@@H]4C)nc(-n4cnc(C)c4C=O)nc3n2)cc1CO [Example 18ba] | < 100 nM
15 | COc1ccc(-c2ccc3c(N4CCOC[C@@H]4C)nc(-n4cnc(Br)c4)nc3n2)cc1CO [Example 18bb] | < 300 nM
16 | COc1ccc(-c2ccc3c(N4CCOC[C@@H]4C)nc(-n4cc(Br)nc4C)nc3n2)cc1CO [Example 18bc] | < 300 nM
17 | CCC1CCC(C)N(c2nc(N3CCOC[C@@H]3C)c3ccc(-c4ccc(OC)c(CO)c4)nc3n2)C1 (some centres unmarked) [Example 18bd] | < 100 nM
18 | COc1ccc(-c2ccc3c(N4CCOC[C@@H]4C)nc(N4CCC(c5ccccc5)CC4)nc3n2)cc1CO [Example 18be] | < 100 nM
19 | COc1ccc(-c2ccc3c(N4CCOC[C@@H]4C)nc(N4CCOC(c5ccccc5)C4)nc3n2)cc1CO (some centres unmarked) [Example 18bf] | < 300 nM
20 | COc1ccc(-c2ccc3c(N4CCOC[C@@H]4C)nc(N4C(C)CCC4C)nc3n2)cc1CO (some centres unmarked) [Example 18bg] | < 100 nM

Row | Structure (SMILES) | IC50
21 | COc1ccc(-c2ccc3c(N4CCOC[C@@H]4C)nc(N4CCC(c5ccncc5)CC4)nc3n2)cc1CO [Example 18bi] | < 100 nM
22 | COc1ccc(-c2ccc3c(N4CCOC[C@@H]4C)nc(N4CCC[C@H](O)C4)nc3n2)cc1CO [Example 18bj] | < 100 nM
23 | COc1ccc(-c2ccc3c(N4CCOC[C@@H]4C)nc(N4CCC[C@@H](O)C4)nc3n2)cc1CO [Example 18bk] | < 100 nM
24 | COc1ccc(-c2ccc3c(N4CCOC[C@@H]4C)nc(N4CCOc5ccccc54)nc3n2)cc1CO [Example 18bl] | < 300 nM
25 | COc1ccc(-c2ccc3c(N4CCOC[C@@H]4C)nc(N4CCCCC4CO)nc3n2)cc1CO (some centres unmarked) [Example 18bm] | < 100 nM
26 | COc1ccc(-c2ccc3c(N4CCOC[C@@H]4C)nc(N4CC[C@@H](O)C4)nc3n2)cc1CO [Example 18bn] | < 100 nM
27 | COC[C@@H](C)Nc1nc(N2CCOC[C@@H]2C)c2ccc(-c3ccc(OC)c(CO)c3)nc2n1 [Example 18bo] | < 100 nM
28 | CCNc1nc(N2CCOC[C@@H]2C)c2ccc(-c3ccc(OC)c(CO)c3)nc2n1 [Example 18bq] | < 300 nM
29 | COc1ccc(-c2ccc3c(N4CCOC[C@@H]4C)nc(NC(C)C)nc3n2)cc1CO [Example 18br] | < 100 nM
30 | COc1ccc(-c2ccc3c(N4CCOC[C@@H]4C)nc(NCCF)nc3n2)cc1CO [Example 18bt] | < 300 nM
31 | COc1ccc(-c2ccc3c(N4CCOC[C@@H]4C)nc(N[C@H](C)CO)nc3n2)cc1CO [Example 18bw] | < 100 nM
32 | COc1ccc(-c2ccc3c(N4CCOC[C@@H]4C)nc(N[C@@H](C)CO)nc3n2)cc1CO [Example 18bx] | < 300 nM
33 | COc1ccc(-c2ccc3c(N4CCOC[C@@H]4C)nc(NCC(F)F)nc3n2)cc1CO [Example 18bz] | < 300 nM
34 | COc1ccc(-c2ccc3c(N4CCOC[C@@H]4C)nc(N4CCCCC4)nc3n2)cc1CO [Example 18c] | < 100 nM
35 | COc1ccc(-c2ccc3c(N4CCOC[C@@H]4C)nc(N4CCNCC4)nc3n2)cc1CO [Example 18ca] | < 300 nM
36 | COc1ccc(-c2ccc3c(N4CCOC[C@@H]4C)nc(NC(C)(C)CO)nc3n2)cc1CO [Example 18cc] | < 100 nM
37 | COc1ccc(-c2ccc3c(N4CCOC[C@@H]4C)nc(NC(CO)CO)nc3n2)cc1CO [Example 18cd] | < 300 nM
38 | COc1ccc(-c2ccc3c(N4CCOC[C@@H]4C)nc(N4CCNC(=O)C4)nc3n2)cc1CO [Example 18cf] | < 100 nM
39 | COc1ccc(-c2ccc3c(N4CCOC[C@@H]4C)nc(N4CCN(C)CC4)nc3n2)cc1CO [Example 18cg] | < 300 nM
40 | COc1ccc(-c2ccc3c(N4CCOC[C@@H]4C)nc(N4CCSCC4)nc3n2)cc1CO [Example 18ch] | < 100 nM

Row | Structure (SMILES) | IC50
41 | COCCN(CCOC)c1nc(N2CCOC[C@@H]2C)c2ccc(-c3ccc(OC)c(CO)c3)nc2n1 [Example 18cj] | < 100 nM
42 | COc1ccc(-c2ccc3c(N4CCOC[C@@H]4C)nc(N(CCO)CCO)nc3n2)cc1CO [Example 18ck] | < 100 nM
43 | COc1ccc(-c2ccc3c(N4CCOC[C@@H]4C)nc(N4CCC[C@@H]4CO)nc3n2)cc1CO [Example 18cm] | < 100 nM
44 | COc1ccc(-c2ccc3c(N4CCOC[C@@H]4C)nc(-n4ccnc4C)nc3n2)cc1CO [Example 18cn] | < 300 nM
45 | COc1ccc(-c2ccc3c(N4CCOC[C@@H]4C)nc(N4CCNC(=O)C4C)nc3n2)cc1CO (some centres unmarked) [Example 18co] | < 100 nM
46 | COc1ccc(-c2ccc3c(N4CCOC[C@@H]4C)nc(N(C)CCO)nc3n2)cc1CO [Example 18cr] | < 100 nM
47 | COc1ccc(-c2ccc3c(N4CCOC[C@@H]4C)nc(N(CCO)C(C)C)nc3n2)cc1CO [Example 18cs] | < 100 nM
48 | COCCOc1nc(N2CCOC[C@@H]2C)c2ccc(-c3ccc(OC)c(CO)c3)nc2n1 [Example 18cx] | < 300 nM
49 | COc1ccc(-c2ccc3c(N4CCOC[C@@H]4C)nc(N4CCCCCC4)nc3n2)cc1CO [Example 18d] | < 100 nM
50 | CNCCOc1nc(N2CCOC[C@@H]2C)c2ccc(-c3ccc(OC)c(CO)c3)nc2n1 [Example 18db] | < 100 nM
51 | COc1ccc(-c2ccc3c(N4CCOC[C@@H]4C)nc(N4CCCCO4)nc3n2)cc1CO [Example 18dd] | < 300 nM
52 | C[C@@H]1CN(c2nc(N3CCOC[C@@H]3C)c3ccc(-c4ccc(Cl)cc4)nc3n2)C[C@H](C)O1 [Example 18dh] | < 300 nM
53 | C[C@H]1COCCN1c1nc(N2CCOCC2)nc2nc(-c3ccc(Cl)cc3)ccc12 [Example 18di] | < 300 nM
54 | COc1ccc(-c2ccc3c(N4CCOC[C@@H]4C)nc(N4CCCCC(N)C4)nc3n2)cc1CO (some centres unmarked) [Example 18e] | < 300 nM
55 | COc1ccc(-c2ccc3c(N4CCOC[C@@H]4C)nc(N4CCC(c5cccc(O)c5)CC4)nc3n2)cc1CO [Example 18f] | < 100 nM
56 | COc1ccc(-c2ccc3c(N4CCOC[C@@H]4C)nc(N4CCC(CCO)CC4)nc3n2)cc1CO [Example 18g] | < 100 nM
57 | COc1ccc(-c2ccc3c(N4CCOC[C@@H]4C)nc(N4CCCC(C(F)(F)F)C4)nc3n2)cc1CO (some centres unmarked) [Example 18h] | < 300 nM
58 | COc1ccc(-c2ccc3c(N4CCOC[C@@H]4C)nc(N4CCCC(C)C4)nc3n2)cc1CO (some centres unmarked) [Example 18i] | < 100 nM
59 | COc1ccc(-c2ccc3c(N4CCOC[C@@H]4C)nc(N4CCCC(O)C4)nc3n2)cc1CO (some centres unmarked) [Example 18k] | < 100 nM
60 | COc1ccc(-c2ccc3c(N4CCOC[C@@H]4C)nc(Nc4ccccc4)nc3n2)cc1CO [Example 18m] | < 100 nM

same assay, conditions: Homo sapiens, MDA-MB-468, read-out: IC50 values against mTOR, phospho-Ser473 Akt assay, MDA-MB-468 cells, upper bound

Row | Structure (SMILES) | IC50
61 | COc1ccc(-c2ccc3c(N4CCOC[C@@H]4C)nc(N4CCC(Cc5ccccc5)CC4)nc3n2)cc1CO [Example 18al] | < 1000 nM
62 | COC(=O)c1cncn1-c1nc(N2CCOC[C@@H]2C)c2ccc(-c3ccc(OC)c(CO)c3)nc2n1 [Example 18az] | < 1000 nM
63 | CNc1nc(N2CCOC[C@@H]2C)c2ccc(-c3ccc(OC)c(CO)c3)nc2n1 [Example 18bp] | < 1000 nM
64 | COc1ccc(-c2ccc3c(N4CCOC[C@@H]4C)nc(NCCO)nc3n2)cc1CO [Example 18bs] | < 1000 nM
65 | CNCCNc1nc(N2CCOC[C@@H]2C)c2ccc(-c3ccc(OC)c(CO)c3)nc2n1 [Example 18bv] | < 1000 nM
66 | COCCNc1nc(N2CCOC[C@@H]2C)c2ccc(-c3ccc(OC)c(CO)c3)nc2n1 [Example 18by] | < 1000 nM
67 | COc1ccc(-c2ccc3c(N4CCOC[C@@H]4C)nc(NCCN(C)C)nc3n2)cc1CO [Example 18cb] | < 1000 nM
68 | COc1ccc(-c2ccc3c(N4CCOC[C@@H]4C)nc(NC(C)CN(C)C)nc3n2)cc1CO (some centres unmarked) [Example 18ct] | < 1000 nM
69 | CCOc1nc(N2CCOC[C@@H]2C)c2ccc(-c3ccc(OC)c(CO)c3)nc2n1 [Example 18cv] | < 1000 nM
70 | C[C@H]1CCCCN1c1nc(N2CCOC[C@@H]2C)c2ccc(-c3ccc(Cl)cc3)nc2n1 [Example 18de] | < 1000 nM
71 | C[C@@H]1CCCCN1c1nc(N2CCOC[C@@H]2C)c2ccc(-c3ccc(Cl)cc3)nc2n1 [Example 18dg] | < 1000 nM
72 | C[C@H]1COCCN1c1nc(N2CCC(C(N)=O)CC2)nc2nc(-c3ccc(Cl)cc3)ccc12 [Example 18dj] | < 1000 nM
73 | COc1ccc(-c2ccc3c(N4CCOC[C@@H]4C)nc(N4CCCC(c5ccccc5)C4)nc3n2)cc1CO (some centres unmarked) [Example 18j] | < 1000 nM
74 | COc1ccc(-c2ccc3c(N4CCOC[C@@H]4C)nc(Nc4ccncn4)nc3n2)cc1CO [Example 18n] | < 1000 nM
